According to the NIST ThermoML archive (doi:10.1007/s10765-013-1404-4):
± gives the expanded uncertainty stated by the source.

Key:
[1] = Crystal; DTA
[2] = Molar enthalpy of transition or fusion; conditions: Crystal; DSC

Structure (SMILES)	Normal melting temperature [1] [°C]	Molar enthalpy of transition or fusion [2] [kJ/mol]
CCN(C(=O)N(CC)c1ccccc1)c1ccccc1 [1,3-diethyl-1,3-diphenylurea]	71.87 ± 0.41	33.5 ± 1.9
CCN(N=O)c1ccc([N+](=O)[O-])cc1 [N-nitroso-N-ethyl-4-nitroaniline]	118.60 ± 0.41	31.1 ± 1.9
c1ccc(Nc2ccccc2)cc1 [diphenylamine]	53.50 ± 0.41	19.7 ± 1.9

Continued, values first:

Normal melting temperature [1] [°C]	Molar enthalpy of transition or fusion [2] [kJ/mol]	Structure (SMILES)
74.79 ± 0.41	26.1 ± 1.9	O=[N+]([O-])c1ccccc1Nc1ccccc1 [2-nitrodiphenylamine]
172.30 ± 0.41	18.4 ± 1.9	O=[N+]([O-])c1ccccc1Nc1ccccc1[N+](=O)[O-] [bis(2-nitrophenyl)amine]
